Among the data in patent publication US12281057B2 (VERTEX PHARMACEUTICALS INCORPORATED, priority 2017, dated 2025) are IC50 values, retold here.

truncated form of human NaV 1.8 with full channel activity, sequence (Q9Y5Y9 126-1722 limits assumed): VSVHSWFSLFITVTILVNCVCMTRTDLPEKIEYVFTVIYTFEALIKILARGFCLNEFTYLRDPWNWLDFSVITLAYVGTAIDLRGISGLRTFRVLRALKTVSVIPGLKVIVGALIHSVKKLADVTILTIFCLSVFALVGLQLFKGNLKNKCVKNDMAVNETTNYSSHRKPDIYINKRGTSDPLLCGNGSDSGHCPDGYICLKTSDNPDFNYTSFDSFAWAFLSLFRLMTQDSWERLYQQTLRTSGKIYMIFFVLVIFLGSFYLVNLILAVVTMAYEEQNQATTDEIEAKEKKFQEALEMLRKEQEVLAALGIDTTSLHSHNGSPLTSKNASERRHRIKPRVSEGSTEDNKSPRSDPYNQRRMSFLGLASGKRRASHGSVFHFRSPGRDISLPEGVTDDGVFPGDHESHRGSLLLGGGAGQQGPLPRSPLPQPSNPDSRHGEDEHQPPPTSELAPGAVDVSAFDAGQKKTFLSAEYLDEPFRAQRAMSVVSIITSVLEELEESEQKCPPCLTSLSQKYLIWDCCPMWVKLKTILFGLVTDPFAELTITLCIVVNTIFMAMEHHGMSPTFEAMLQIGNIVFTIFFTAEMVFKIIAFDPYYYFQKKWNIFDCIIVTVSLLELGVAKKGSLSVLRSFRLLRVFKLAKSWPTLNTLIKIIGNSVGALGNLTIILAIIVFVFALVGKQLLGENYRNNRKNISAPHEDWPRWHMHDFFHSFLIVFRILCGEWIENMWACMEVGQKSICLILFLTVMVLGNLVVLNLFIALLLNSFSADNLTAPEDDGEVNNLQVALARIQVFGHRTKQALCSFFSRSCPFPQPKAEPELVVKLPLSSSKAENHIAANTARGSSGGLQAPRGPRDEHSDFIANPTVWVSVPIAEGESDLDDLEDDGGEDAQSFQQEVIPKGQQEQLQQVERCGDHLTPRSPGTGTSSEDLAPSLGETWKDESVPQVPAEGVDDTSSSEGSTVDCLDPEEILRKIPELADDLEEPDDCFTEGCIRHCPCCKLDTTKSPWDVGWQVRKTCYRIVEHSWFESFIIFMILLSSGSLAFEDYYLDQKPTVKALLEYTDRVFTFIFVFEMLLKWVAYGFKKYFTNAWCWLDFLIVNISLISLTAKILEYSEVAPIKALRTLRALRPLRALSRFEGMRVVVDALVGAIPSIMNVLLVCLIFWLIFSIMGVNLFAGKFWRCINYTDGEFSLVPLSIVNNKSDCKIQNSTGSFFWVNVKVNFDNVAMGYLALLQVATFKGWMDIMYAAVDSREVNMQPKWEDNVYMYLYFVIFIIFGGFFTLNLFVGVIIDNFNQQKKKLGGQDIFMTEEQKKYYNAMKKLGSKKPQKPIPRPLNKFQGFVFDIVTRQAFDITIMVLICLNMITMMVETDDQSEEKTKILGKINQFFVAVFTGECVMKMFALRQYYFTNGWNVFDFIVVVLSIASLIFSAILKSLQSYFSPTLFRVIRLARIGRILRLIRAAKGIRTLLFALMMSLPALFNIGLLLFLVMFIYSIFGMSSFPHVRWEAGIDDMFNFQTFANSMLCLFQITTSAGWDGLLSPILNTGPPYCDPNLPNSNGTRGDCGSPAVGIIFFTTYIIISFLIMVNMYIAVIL

In this test the target is truncated form of human NaV 1.8 with full channel activity (Homo sapiens, UniProt Q9Y5Y9). Briefly: E-VIPR Assay Method A for detecting and measuring Nav inhibition (HEK cells, membrane potential FRET dyes, electrical stimulation). Particulars: HEK cells expressing human NaV 1.8, HS (human serum) in compound loading buffer, 11 point dose response, top dose 3 μM, Table 20A, read-out: Nav 1.8 MedChem Optical Assay EVIPR Assay Method A HS IC50. It is filed as cell-based. Put shortly:
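HEK cells expressing truncated human NaV1.8, loaded with CC2-DMPE/DiSBAC6(3) FRET dyes, incubated 30 min at room temp with compound (0.625% DMSO), then electrically stimulated (1.25 A biphasic, 10 Hz, 10 s). Inhibition from 460/580 nm ratio Rf/Ri, normalised to positive and DMSO controls.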
The term IC50 denotes the concentration needed to halve the response being measured. Take `COc1cc(OC(F)(F)F)ccc1Oc1ccc(F)c(F)c1C(=O)Nc1ccc(F)c(C(N)=O)c1` [Compound 55, N-(3-Carbamoyl-4-fluoro-phenyl)-2,3-difluoro-6-[2-methoxy-4-(trifluoromethoxy)phenoxy]benzamide]: the IC50 turned out to be 18 nM. `COc1ccc(Oc2ccc(C(F)(F)F)c(F)c2C(=O)Nc2ccc(F)c(C(N)=O)c2)cn1` [Compound 56, N-(3-carbamoyl-4-fluoro-phenyl)-2-fluoro-6-[(6-methoxy-3-pyridyl)oxy]-3-(trifluoromethyl)benzamide]: the half-maximal inhibitory concentration (IC50) came out at 260 nM. Regarding `NC(=O)c1cc(NC(=O)c2c(Oc3ccc(OC(F)(F)F)c(F)c3)ccc(C(F)(F)F)c2F)ccn1` [Compound 57, 4-[[2-fluoro-6-[3-fluoro-4-(trifluoromethoxy)phenoxy]-3-(trifluoromethyl)benzoyl]amino]pyridine-2-carboxamide], the IC50 came out at 17 nM. Under `NC(=O)c1cc(NC(=O)c2c(Oc3cccc4c3OCC4)ccc(C(F)(F)F)c2F)ccc1F` [Compound 58, N-(3-Carbamoyl-4-fluoro-phenyl)-6-(2,3-dihydrobenzofuran-7-yloxy)-2-fluoro-3-(trifluoromethyl)benzamide] stands 190 nM; under `Cc1cc(OC(F)(F)F)ccc1Oc1ccc(C(F)(F)F)c(F)c1C(=O)Nc1ccnc(C(N)=O)c1` [Compound 59, 4-[[2-fluoro-6-[2-methyl-4-(trifluoromethoxy)phenoxy]-3-(trifluoromethyl)benzoyl]amino]pyridine-2-carboxamide], 7 nM. Under `NC(=O)c1ccc(NC(=O)c2c(Oc3ccc(OC(F)(F)F)cc3)ccc(C(F)(F)F)c2F)cn1` [Compound 60, 5-[[2-fluoro-6-[4-(trifluoromethoxy)phenoxy]-3-(trifluoromethyl)benzoyl]amino]pyridine-2-carboxamide] stands 185 nM. Under `NC(=O)c1cc(NC(=O)c2c(Oc3ccc(OC(F)(F)F)cc3)cnc(C(F)(F)F)c2F)ccn1` [Compound 61, N-(2-Carbamoyl-4-pyridyl)-3-fluoro-5-[4-(trifluoromethoxy)phenoxy]-2-(trifluoromethyl)pyridine-4-carboxamide] stands 38 nM. With `NC(=O)c1cc(NC(=O)c2c(Oc3ccc(OC(F)(F)F)cc3)cnc(C(F)(F)F)c2F)ccc1F` [Compound 62, N-(3-Carbamoyl-4-fluoro-phenyl)-3-fluoro-5-[4-(trifluoromethoxy)phenoxy]-2-(trifluoromethyl)pyridine-4-carboxamide], the IC50 came out at 11 nM. The result for `NC(=O)c1cc(NC(=O)c2c(Oc3ccc(OC(F)(F)F)cc3)ccc(F)c2F)ccc1F` [Compound 63, N-(3-Carbamoyl-4-fluoro-phenyl)-2,3-difluoro-6-[4-(trifluoromethoxy)phenoxy]benzamide] reads 140 nM; that for `NC(=O)c1cc(NC(=O)c2c(Oc3ccc(OC(F)(F)F)cc3)ccc(F)c2F)ccn1` [Compound 64, 4-[[2,3-Difluoro-6-[4-(trifluoromethoxy)phenoxy]benzoyl]amino]pyridine-2-carboxamide], 185 nM. Under `NC(=O)c1ccc(NC(=O)c2c(Oc3ccc(OC(F)(F)F)cc3)ccc(C(F)(F)F)c2F)cc1F` [Compound 65, N-(4-Carbamoyl-3-fluoro-phenyl)-2-fluoro-6-[4-(trifluoromethoxy)phenoxy]-3-(trifluoromethyl)benzamide] stands 79 nM; under `Cc1cc(OC(F)(F)F)ccc1Oc1ccc(C(F)(F)F)c(F)c1C(=O)Nc1ccc(C(N)=O)c(F)c1` [Compound 66, N-(4-carbamoyl-3-fluoro-phenyl)-2-fluoro-6-[2-methyl-4-(trifluoromethoxy)phenoxy]-3-(trifluoromethyl)benzamide], 38 nM.

Take `COc1nc(Cl)ccc1Oc1ccc(C(F)(F)F)c(F)c1C(=O)Nc1ccc(C(N)=O)c(F)c1` [Compound 67, N-(4-carbamoyl-3-fluoro-phenyl)-6-[(6-chloro-2-methoxy-3-pyridyl)oxy]-2-fluoro-3-(trifluoromethyl)benzamide]: the IC50 was 42 nM. The result for `COc1cc(OC(F)(F)F)ccc1Oc1cnc(C(F)(F)F)cc1C(=O)Nc1ccc(F)c(C(N)=O)c1` [Compound 68, N-(3-Carbamoyl-4-fluoro-phenyl)-5-[2-methoxy-4-(trifluoromethoxy)phenoxy]-2-(trifluoromethyl)pyridine-4-carboxamide] reads 21 nM; that for `NC(=O)c1cc(NC(=O)c2c(Oc3ccc(OC(F)(F)F)nc3)ccc(C(F)(F)F)c2F)ccc1F` [Compound 69, N-(3-carbamoyl-4-fluoro-phenyl)-2-fluoro-6-[[6-(trifluoromethoxy)-3-pyridyl]oxy]-3-(trifluoromethyl)benzamide], 56 nM; that for `NC(=O)c1cc(NC(=O)c2c(Oc3ccc(OC(F)(F)F)cc3)ccc(Cl)c2F)ccn1` [Compound 70, 4-[[3-Chloro-2-fluoro-6-[4-(trifluoromethoxy)phenoxy]benzoyl]amino]pyridine-2-carboxamide], 53 nM. For `NC(=O)c1cc(NC(=O)c2c(Oc3ccc(OC(F)(F)F)cc3)ccc(C3CC3)c2F)ccc1F` [Compound 71, N-(3-Carbamoyl-4-fluoro-phenyl)-3-cyclopropyl-2-fluoro-6-[4-(trifluoromethoxy)phenoxy]benzamide], the IC50 worked out at 40 nM. The result for `NC(=O)c1cc(NC(=O)c2c(Oc3ccc(OC(F)(F)F)cc3)ccc(C3CC3)c2F)ccn1` [Compound 72, 4-[[3-Cyclopropyl-2-fluoro-6-[4-(trifluoromethoxy)phenoxy]benzoyl]amino]pyridine-2-carboxamide] reads 175 nM. Under `NC(=O)c1cc(NC(=O)c2c(Oc3ccc(OC(F)(F)F)cc3)ccc(Cl)c2F)ccc1F` [Compound 73, N-(3-Carbamoyl-4-fluoro-phenyl)-3-chloro-2-fluoro-6-[4-(trifluoromethoxy)phenoxy]benzamide] stands 23 nM. As for `NC(=O)c1cc(NC(=O)c2c(Oc3ccc(OC(F)(F)F)cc3)ccc(C(F)F)c2F)ccc1F` [Compound 74, N-(3-Carbamoyl-4-fluoro-phenyl)-3-(difluoromethyl)-2-fluoro-6-[4-(trifluoromethoxy)phenoxy]benzamide], the IC50 amounted to 22 nM. The result for `COc1cc(OC(F)(F)F)ccc1Oc1cc(C(F)(F)F)c(F)cc1C(=O)Nc1ccnc(C(N)=O)c1` [Compound 75, 4-[[5-Fluoro-2-[2-methoxy-4-(trifluoromethoxy)phenoxy]-4-(trifluoromethyl)benzoyl]amino]pyridine-2-carboxamide] reads 26 nM; that for `NC(=O)c1cc(NC(=O)c2cc(F)c(C(F)(F)F)cc2Oc2ccc(OC(F)(F)F)cc2)ccn1` [Compound 76, 4-[[5-Fluoro-2-[4-(trifluoromethoxy)phenoxy]-4-(trifluoromethyl)benzoyl]amino]pyridine-2-carboxamide], 350 nM.

Consider `NC(=O)c1cc(NC(=O)c2cc(F)c(C(F)(F)F)cc2Oc2ccc(OC(F)(F)F)cc2)ccc1F` [Compound 77, N-(3-Carbamoyl-4-fluoro-phenyl)-5-fluoro-2-[4-(trifluoromethoxy)phenoxy]-4-(trifluoromethyl)benzamide], for which the IC50 turned out to be 150 nM. The result for `COc1cc(OC(F)(F)F)ccc1Oc1cc(C2CC2)ncc1C(=O)Nc1ccnc(C(N)=O)c1` [Compound 78] reads 97 nM.
